Experimental data as given in patent publication US11866405B2, “Substituted indazoles as IRAK4 inhibitors” (AstraZeneca AB, priority 2020, dated 2024).
pIC50: −log10 of the molar value. Where two headings read alike, the source gives them in different places.

Key:
[1] = target: IRAK4 auto-phosphorylation (Homo sapiens (Human), UniProt Q9NWZ3); experiment: IRAK4 phosphorylation cell assay in IL-1β-stimulated Karpas-299 cells; type: cell-based; conditions: IL-1β 22.7 ng/mL, pIRAK4 (Thr345/Ser346), geometric mean of at least 2 experiments
IRAK4 auto-phosphorylation, sequence (Q9NWZ3 whole entry): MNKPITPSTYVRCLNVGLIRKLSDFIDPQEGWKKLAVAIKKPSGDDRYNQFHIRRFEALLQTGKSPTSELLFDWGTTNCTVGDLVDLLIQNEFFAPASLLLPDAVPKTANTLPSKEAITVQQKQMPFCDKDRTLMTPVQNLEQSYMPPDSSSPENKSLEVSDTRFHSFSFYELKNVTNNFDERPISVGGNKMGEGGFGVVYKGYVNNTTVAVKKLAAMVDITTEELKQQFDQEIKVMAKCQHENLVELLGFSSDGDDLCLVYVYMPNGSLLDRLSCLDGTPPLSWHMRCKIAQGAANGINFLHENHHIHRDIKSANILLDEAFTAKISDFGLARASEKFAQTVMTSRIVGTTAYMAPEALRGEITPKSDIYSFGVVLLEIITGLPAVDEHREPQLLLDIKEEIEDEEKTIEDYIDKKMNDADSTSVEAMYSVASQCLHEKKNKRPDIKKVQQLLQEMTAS
Outline: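 Karpas-299 cells were preincubated 1 h at 37 °C with compound (10-point half-log series, top 30 μM), then stimulated 10 min with 22.7 ng/mL IL-1β. Cells were fixed and stained for pIRAK4 (Thr345/Ser346), and per-cell fluorescence was quantified by high-content imaging. IC50 values are geometric means of at least 2 experiments.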

[2] = target: human recombinant IRAK4 protein (Homo sapiens (Human), UniProt Q9NWZ3); experiment: IRAK4 enzyme assay (mass spectrometry readout); type: biochemical; conditions: 3 mM ATP, 0.2 nM enzyme; geometric mean of at least n=2, * single experiment
human recombinant IRAK4 protein, sequence (Q9NWZ3 whole entry): as above
Outline: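 0.2 nM IRAK4 preincubated 15 min at room temperature with compound (10-point half-log series, top 1 μM or 10 μM) in pH 7.4 Tris buffer with 3 mM ATP; 10 μM peptide substrate added, 2 h at room temperature, formic acid stop. Phospho/unphospho peptide ratio by LC-MS/MS; potency from curve fit, geometric mean of n≥2 or single run.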

[3] = system: IL-1β stimulated IL-8 release in hTHP1 cells; experiment: IL-1β-induced IL-8 release in human THP-1 monocyte cell line; type: cell-based; conditions: THP-1 cells, IL-1β 1.8 ng/mL
Method: Effect of IRAK4 Inhibitors on IL-1β-Induced Cytokine Release in Human THP-1 Monocyte Cell Line
THP-1 cells were cultured in RPMI 1640 (Gibco 72400-021) containing 10% FBS (Gibco 10270-106), 1 mM Na-pyruvate (Gibco 11360-070) and 100 U/mL Penicillin-Streptomycin (Gibco 15140-122). Cells were plated at 5×10^4 cells per well in 384 well Echo certified plates (Labcyte PPT-0200) to which compounds had been added at various concentrations (10 point half log dose response with a final top concentration of 10 μM) using an Echo 655 (Labcyte Inc). The plate was incubated for 1 h at 37° C., then recombinant […] (R&D Systems 201-LB-025/CF) was added to a final concentration of 1.8 ng/mL. The plates were incubated at 37° C. for 18h. The plates were centrifuged at 250×g for four minutes, then 1.6 μL of the cell supernatant was transferred to a white low volume 384 well plate (Greiner #784075) using acoustic dispensing on an Echo 655. Next, 200 nL of acceptor bead (5 mg/mL) and biotinylated anti-IL-8 antibody (500 nM) was added using acoustic dispensing (beads and antibody were from a PerkinElmer 18 Alpha LISA detection kit, AL224C). The plate was sealed, briefly centrifuged, then incubated at room temperature for 1 h. Afterwards, 200 nL of donor bead solution (5 mg/mL) was added, the plate sealed and briefly centrifuged, then incubated for 1 h before being read on an Envision plate reader to allow determination the concentration of IRAK4 inhibitor required to effect a 50% reduction in the amount of IL-8 released following IL-1β stimulation in THP1 cells (Table 2). The quantified data were analysed in Genedata Screener 15 (Genedata AG). Data presented are the geometric mean of at least n=2, or as denoted by an * are obtained from a single experiment.

[4] = Homo sapiens, THP-1, 18 h, geometric mean of at least n=2, * n = 1, read-out: hTHP1, IL1β stim, IL8 release red. IC50
[5] = 18 h, geometric mean of at least n=2, * n = 1, read-out: hTHP1, IL1β stim, IL8 release red. IC50

SMILES	pIC50 [1]	pIC50 [2]	pIC50 [3, 4]	pIC50 [3, 5]
C[C@H]1C[C@@H](O)CC[C@@H]1n1cc2cc(C(=O)Nc3cnn4cccnc34)c(OC3CC3)cc2n1 (single isomer, unassigned) [Example 45]	7.15	8.92	7.34	–
COc1cc2nn([C@@H]3CCC4(C[C@@H]3C)CN(C(C)=O)C4)cc2cc1C(=O)Nc1cnc2cccnn12 (single isomer, unassigned) [Example 64]	7.42	> 9.30	–	7.74
COc1cc2nn([C@@H]3CCC4(C[C@H]3C)CN(C(C)=O)C4)cc2cc1C(=O)Nc1cnc2cccnn12 (single isomer, unassigned) [Example 66]	7.64	> 9.30	–	7.74
COc1cc2nn([C@@H]3CCC4(C[C@H]3C)CN(C(C)=O)C4)cc2cc1C(=O)Nc1cnc2cccnn12 (single isomer, unassigned) [Example 67]	6.84	8.37	–	7.04
COc1cc2nn([C@H]3CC[C@H](O)[C@@H](C)C3)cc2cc1C(=O)Nc1cnc2cccnn12 (single isomer, unassigned) [Example 80]	7.55	8.82	7.15	–
COc1cc2nn([C@H]3CC[C@@H](O)CC3)cc2cc1C(=O)Nc1cnc2cccnn12 [Example 7, 2-((1s,4s)-4-Hydroxycyclohexyl)-N-(imidazo[1,2-b]pyridazin-3-yl)-6-methoxy-2H-indazole-5-carboxamide]	6.95	8.22	–	7.32
O=C(Nc1cnn2cccnc12)c1cc2cn([C@@H]3CCC[C@H](O)C3)nc2cc1OC1CC1 [Example 17, 6-cyclopropoxy-2-((1R,3S)-3-hydroxycyclohexyl)-N-(pyrazolo[1,5-a]pyrimidin-3-yl)-2H-indazole-5-carboxamide]	7.30	9.00	7.62	–
COc1cc2nn([C@H]3CC[C@H](N(C)C(C)=O)CC3)cc2cc1C(=O)Nc1cnn2cnccc12 [Example 25, 6-Methoxy-2-((1r,4r)-4-(N-methylacetamido)cyclohexyl)-N-(pyrazolo[1,5-c]pyrimidin-3-yl)-2H-indazole-5-carboxamide]	7.72	8.85	–	7.64

Continued by rising pIC50 [1], values first:

pIC50 [1]	pIC50 [2]	pIC50 [3, 4]	pIC50 [3, 5]	SMILES
6.73	8.34	7.51	–	COc1cc2nn([C@H]3CC[C@H](O)C[C@@H]3C)cc2cc1C(=O)Nc1cnn2cccnc12 (single isomer, unassigned) [Example 38]
7.24	8.55	–	7.30	COc1cc2nn([C@H]3CC[C@H](O)CC3)cc2cc1C(=O)Nc1cnc2cccnn12 [Example 8, 2-((1r,4r)-4-Hydroxycyclohexyl)-N-(imidazo[1,2-b]pyridazin-3-yl)-6-methoxy-2H-indazole-5-carboxamide]
7.36	8.96	–	7.28	COc1cc2nn([C@@H]3CCC4(C[C@@H]3C)CN(C(C)=O)C4)cc2cc1C(=O)Nc1cnc2cccnn12 (single isomer, unassigned) [Example 65]
7.44	9.15	7.77	–	COc1cc2nn(C3CCC4(CC3)CN(C(C)=O)C4)cc2cc1C(=O)Nc1cnc2cccnn12 [Example 21, 2-(2-Acetyl-2-azaspiro[3.5]nonan-7-yl)-N-(imidazo[1,2-b]pyridazin-3-yl)-6-methoxy-2H-indazole-5-carboxamide]
7.72	> 9.22	–	7.68	O=C(Nc1cnn2cccnc12)c1cc2cn([C@H]3CCC[C@@H](O)C3)nc2cc1OC1CC1 [Example 18]
8.30	9.70	8.15	–	COc1cc2nn([C@H]3CC[C@H](N(C)C(C)=O)CC3)cc2cc1C(=O)Nc1cnc2cccnn12 [Example 23, N-(Imidazo[1,2-b]pyridazin-3-yl)-6-methoxy-2-((1r,4r)-4-(N-methylacetamido)cyclohexyl)-2H-indazole-5-carboxamide]
